Experimental data as given in US20090305995A1, “AGONISTS AND ANTAGONISTS OF THE SOMATOSTATIN RECEPTOR” (Novartis AG, priority 2004, published 2009).
In brackets after ≈: the same amount, converted by molar mass. Read-outs that look alike come from different tables or passages of the source.

Columns and labels:
hsst4 receptor = target: T1, hsst4 receptor (Homo sapiens, UniProt P31391); experiment: radioligand-binding displacement assay ([125I]LTT-SRIF28), receptor expressed in CCL39 cells; settings: for Kd: hsst4, [125I]LTT-SRIF28 displacement
T1 construct: expressed in transfected cells; host or cells: Chinese hamster lung fibroblast (CCL39) cells
Experimental: The generated peptides are tested for their affinity to bind to human SRIF receptors expressed in Chinese hamster lung fibroblast (CCL39) cells. This is achieved in radioligand-binding assays, a displacement experiment in which the concentration of a substance is measured which is necessary for the replacement of 50% of a specifically bound radioligand ([^125I]LTT-SRIF28). Specific binding is measured as the total binding of receptor-specific radioligand minus the amount of radioligand bound in presence of unmarked SRIF-14 (100 nM, nonspecific binding).

[1] = high throughput solubility (HT-Solubility); type: physicochemical; settings: for water solubility (in words): see FIG. 10
[2] = high throughput permeability (HT-Permeability, log Pe); type: physicochemical; settings: PAMPA, Pe in cm/s
[3] = HT-logP o/w, high throughput assay based on artificial liquid membrane permeability; type: physicochemical
Text: To be absorbed and transported by passive diffusion, drugs must be sufficiently lipophilic to penetrate the lipid cores of membranes, but not too lipophilic that they get retained and accumulated there. The lipophilictity of a compound is expressed by the octanol/water partition coefficient or distribution coefficient. A first approximation of substance polarity can either be given by computer assisted calculations giving Clog P values or by measurement of the partition coefficients in high-throughput assays (HT-log P o/w) (Faller et al., 2004; Wohnsland et al., 2001).
Octanol/water partition coefficients are measured in a high throughput assay based on artificial liquid membrane permeability. […] Still many approaches to calculate log P values are limited due to a lack of parameterization of certain fragments and fail with increasing molecular weight which implicates higher structural complexity. Similar problems and failures are observed in chromatographic determinations of log P: Peptides might undergo structural changes driven by interactions with the stationary phase. Decisive interactions between the stationary phase and the defolded analytes are therefore also based on the linear peptide sequence. For this reason measured HT-log P o/w values based on chromatographic assays employing stationary phases may lead to erroneous results.

[4] = pH 1, pH 1.0, read-out: HT-Solubility pH 1.0
[5] = pH 6.8, pH 6.8, read-out: HT-Solubility pH 6.8
[6] = pH 4, pH 4.0, read-out: HT-Permeability logPe pH 4.0 (converted)
[7] = octanol/water, read-out: HT LogP ohw
[8] = pH 6.8, pH 6.8, read-out: HT-Permeability logPe pH 6.8 (converted)
[9] = pH 8, pH 8.0, read-out: HT-Permeability logPe pH 8.0 (converted)

T1 sequence (P31391 whole entry): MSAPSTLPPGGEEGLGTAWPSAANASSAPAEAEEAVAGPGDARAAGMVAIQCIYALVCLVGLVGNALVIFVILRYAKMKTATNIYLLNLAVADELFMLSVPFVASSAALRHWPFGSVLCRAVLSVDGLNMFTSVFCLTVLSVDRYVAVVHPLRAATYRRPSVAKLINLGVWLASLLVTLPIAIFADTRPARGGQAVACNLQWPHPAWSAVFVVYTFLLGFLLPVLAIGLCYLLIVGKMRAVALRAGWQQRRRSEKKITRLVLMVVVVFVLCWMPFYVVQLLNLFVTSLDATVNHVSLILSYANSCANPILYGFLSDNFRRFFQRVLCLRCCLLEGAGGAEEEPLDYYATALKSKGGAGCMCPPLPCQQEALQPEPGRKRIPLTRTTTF

Kd (hsst4 receptor)	solubility [1, 4]	solubility [1, 5]	Papp [2, 6]	logP [3, 7]	water solubility (in words) [1]	Papp [2, 8]	Papp [2, 9]	binding affinity to hsst4 (in words) (hsst4 receptor)	HT-Solubility pH 6.8 ([1]; pH 6.8)	Structure (SMILES)	solubility ([1]; pH 1.0, read-out: HT-Solubility pH 1.0)	solubility ([1]; pH 6.8, read-out: HT-Solubility pH 6.8)	Papp ([2]; pH 4.0, read-out: HT-Permeability logPe pH 4.0 (converted))	logP ([3]; octanol/water; read-out: HT LogP ohw)
–	129 µg/mL (≈ 200 µM)	129 µg/mL (≈ 200 µM)	1 ×10⁻⁶ cm/s	3.3	–	–	–	lower binding affinities	–	CCC(=O)N(C)[C@H](CC(=O)N[C@H](Cc1c[nH]c2ccccc12)C(=O)N[C@@H](CCCCN)CC(=O)NC1CCCC1)Cc1ccccc1 [Compound 46, Propionyl-N-Me-(S)-β^3-HPhe-(R)-Trp-(S)-β^3-HLys-cyclopentyl-amide]	–	–	–	–
0.035 µM	129 µg/mL (≈ 200 µM)	129 µg/mL (≈ 200 µM)	5.01 ×10⁻⁶ cm/s	3.3	highest solubility values	3.98 ×10⁻⁶ cm/s	12.6 ×10⁻⁶ cm/s	–	–	CCCCCNC(=O)C[C@H](CCCCN)NC(=O)[C@@H](Cc1c[nH]c2ccccc12)N(C)C(=O)C[C@H](Cc1ccccc1)NC(=O)CC [Compound 70, Propionyl-(S)-β^3-HPhe-(R)—N-Me-Trp-(S)-β^3-HLys-pentyl-amide]	–	–	–	–
0.01 µM	124 µg/mL (≈ 200 µM)	–	6.31 ×10⁻⁶ cm/s	3.3	medium to good	–	25.1 ×10⁻⁶ cm/s	–	0.0309 g 1-1	CCCCCNC(=O)C[C@H](CCCCN)NC(=O)[C@@H](Cc1c[nH]c2ccccc12)NC(=O)C[C@H](Cc1ccccc1)NC(C)=O [Compound 44]	–	–	–	–
0.057 µM	135 µg/mL (≈ 200 µM)	135 µg/mL (≈ 200 µM)	12.6 ×10⁻⁶ cm/s	4.1	highest solubility values	2.51 ×10⁻⁶ cm/s	5.01 ×10⁻⁶ cm/s	–	–	CCCCCCN(C)C(=O)C[C@H](CCCCN)NC(=O)[C@@H](Cc1c[nH]c2ccccc12)N(C)C(=O)C[C@H](Cc1ccccc1)NC(=O)CC [Compound 65, Propionyl-(S)-β^3-HPhe-(R)—N-Me-Trp-(S)-β^3-HLys-methyl-hexyl-amide]	–	–	–	–
–	115 µg/mL (≈ 200 µM)	115 µg/mL (≈ 200 µM)	1.26 ×10⁻⁶ cm/s	2.8	–	–	1 ×10⁻⁶ cm/s	–	–	CCCC(=O)N[C@H](CC(=O)N[C@H](Cc1c[nH]c2ccccc12)C(=O)N[C@@H](CCCCN)CC(N)=O)Cc1ccccc1 [Compound 61, Butyroyl-(S)-β^3-HPhe-(R)-Trp-(S)-β^3-HLys-NH2]	–	–	–	–
–	115 µg/mL (≈ 200 µM)	115 µg/mL (≈ 200 µM)	5.01 ×10⁻⁶ cm/s	2.9	–	–	3.98 ×10⁻⁶ cm/s	–	–	NCCCC[C@@H](CC(=O)NC1CCCC1)NC(=O)[C@@H](Cc1c[nH]c2ccccc12)NC(=O)C[C@@H](N)Cc1ccccc1 [Compound 62, (S)-β^3-HPhe-(R)-Trp-(S)-β^3-HLys-cyclopentyl-amide]	–	–	–	–
–	129 µg/mL (≈ 200 µM)	12.9 µg/mL (≈ 20 µM)	0.1 ×10⁻⁶ cm/s	3	–	–	–	–	–	CCCC(=O)N[C@H](CC(=O)N[C@H](Cc1c[nH]c2ccccc12)C(=O)N[C@@H](CCCCN)CC(=O)NC1CCCC1)Cc1ccccc1 [Compound 56, Butyroyl-(S)-β^3-HPhe-(R)-Trp-(S)-β^3-HLys-cyclopentyl-amide]	–	–	–	–
–	147 µg/mL (≈ 200 µM)	73.7 µg/mL (≈ 100 µM)	5.01 ×10⁻⁶ cm/s	5.2	–	6.31 ×10⁻⁶ cm/s	1.26 ×10⁻⁶ cm/s	–	–	NCCCC[C@@H](CC(=O)NC1CCCC1)NC(=O)[C@@H](Cc1c[nH]c2ccccc12)NC(=O)C[C@H](Cc1ccccc1)NC(=O)C12CC3CC(CC(C3)C1)C2 [Compound 34, Adamantoyl-(S)-β^3-HPhe-(R)-Trp-(S)-β^3-HLys-cyclopentyl-amide]	–	–	–	–

The next lines start with the molecule.

Structure (SMILES)	Kd (hsst4 receptor)	solubility [1, 4]	solubility [1, 5]	Papp [2, 6]	logP [3, 7]	water solubility (in words) [1]	Papp [2, 8]	Papp [2, 9]	binding affinity to hsst4 (in words) (hsst4 receptor)	HT-Solubility pH 6.8 ([1]; pH 6.8)	solubility ([1]; pH 1.0, read-out: HT-Solubility pH 1.0)	solubility ([1]; pH 6.8, read-out: HT-Solubility pH 6.8)	Papp ([2]; pH 4.0, read-out: HT-Permeability logPe pH 4.0 (converted))	logP ([3]; octanol/water; read-out: HT LogP ohw)
NCCCC[C@@H](CC(=O)NC1CCCC1)NC(=O)[C@@H](Cc1c[nH]c2ccccc12)NC(=O)C[C@H](Cc1ccccc1)NC(=O)CCc1ccccc1 [Compound 32, Dihydrocinnemoyl-(S)-β^3-HPhe-(R)-Trp-(S)-β^3-HLys-cyclopentyl-amide]	0.417 µM	70.7 µg/mL (≈ 100 µM)	14.1 µg/mL (≈ 19.9 µM)	0.1 ×10⁻⁶ cm/s	4	–	–	–	–	–	–	–	–	–
C[C@H]1OC(=O)C[C@H]1NC(=O)C[C@H](CCCCN)NC(=O)[C@@H](Cc1cn(C)c2ccccc12)NC(=O)C[C@H](Cc1ccccc1)NC(=O)C12CC3CC(CC(C3)C1)C2 [Compound 20, Adamantoyl-(S)-β^3-HPhe-(R)-1-Me-Trp-(S)-β^3-HLys-(R)-4-amino-(R)-5-methyl-dihydro-furan-2-one]	2.95 µM	15.6 µg/mL (≈ 20 µM)	15.6 µg/mL (≈ 20 µM)	0.1 ×10⁻⁶ cm/s	2.9	–	–	–	–	–	–	–	–	–
CCCCCN(C)C(=O)C[C@H](CCCCN)NC(=O)[C@@H](Cc1c[nH]c2ccccc12)N(Cc1ccccc1)C(=O)C[C@H](Cc1ccccc1)NC(=O)CC [Compound 66, Propionyl-(S)-β^3-HPhe-(R)—N-Benzyl-Trp-(S)-β^3-HLys-methyl-pentyl-amide]	0.014 µM	147 µg/mL (≈ 200 µM)	14.7 µg/mL (≈ 19.9 µM)	–	5.5	does not allow for good water solubilities	7.94 ×10⁻⁶ cm/s	3.98 ×10⁻⁶ cm/s	–	–	–	–	–	–
CC(=O)N[C@H](CC(=O)N[C@H](Cc1cn(C)c2ccccc12)C(=O)N[C@@H](CCCCN)CC(=O)N[C@@H]1CC(=O)O[C@@H]1C)Cc1ccccc1 [Compound 21, Ac—(S)-β^3-HPhe-(R)-1-Me-Trp-(S)-β^3-HLys-(R)-4-amino-(R)-5-methyl-dihydro-furan-2-one]	0.708 to 2.95 µM	13.2 µg/mL (≈ 20 µM)	13.2 µg/mL (≈ 20 µM)	0.1 ×10⁻⁶ cm/s	3.3	–	–	–	–	–	–	–	–	–
CC(=O)N[C@H](CC(=O)N[C@H](Cc1c[nH]c2ccccc12)C(=O)N[C@@H](CCCCN)CC(=O)N[C@H](CC(=O)N(C)CCc1ccccc1)C(C)C)Cc1ccccc1 [Compound 25, Ac—(S)-β^3-HPhe-(R)-Trp-(S)-β^3-HLys-(R)-β^3-Leu-methyl-phenethyl-amide]	0.115 µM	78 µg/mL (≈ 100 µM)	15.6 µg/mL (≈ 20 µM)	0.1 ×10⁻⁶ cm/s	3.3	–	–	–	–	–	–	–	–	–
C[C@H]1OC(=O)C[C@H]1NC(=O)C[C@H](CCCCN)NC(=O)[C@@H](Cc1cn(C)c2ccccc12)NC(=O)C[C@H](Cc1ccccc1)NC(=O)CCc1ccccc1 [Compound 19, Dihydrocinnemoyl-(S)-β^3-HPhe-(R)-1-Me-Trp-(S)-β^3-HLys-(R)-4-amino-(R)-5-methyl-dihydro-furan-2-one]	0.708 µM	15 µg/mL (≈ 20 µM)	15 µg/mL (≈ 20 µM)	0.1 ×10⁻⁶ cm/s	3.7	–	–	–	–	–	–	–	–	–
CC(=O)N[C@H](CC(=O)N[C@H](Cc1c[nH]c2ccccc12)C(=O)N[C@@H](CCCCN)CC(=O)NC1CCCC1)Cc1ccccc1 [Compound 30]	0.062 µM	–	–	–	–	–	–	–	–	–	–	–	–	–
CC(C)[C@@H](CC(=O)N(C)CCc1ccccc1)NC(=O)C[C@H](CCCCN)NC(=O)[C@@H](Cc1c[nH]c2ccccc12)NC(=O)C[C@H](Cc1ccccc1)NC(=O)CCc1ccccc1 [Compound 23, Dihydrocinnemoyl-(S)-β^3-HPhe-(R)-Trp-(S)-β^3-HLys-(R)-β^3-Leu-methyl-phenethyl-amide]	–	17.4 µg/mL (≈ 20 µM)	17.4 µg/mL (≈ 20 µM)	0.1 ×10⁻⁶ cm/s	5.9	–	–	–	–	–	–	–	–	–
C[C@@H](O)[C@@H](CC(N)=O)NC(=O)C[C@H](CCCCN)NC(=O)[C@@H](Cc1c[nH]c2ccccc12)NC(=O)C[C@H](Cc1ccccc1)NC(=O)c1ccccc1 [Compound 14, Benzoyl-(S)-β^3-HPhe-(R)-Trp-(S)-β^3-HLys-(R), (R)—HThr-NH2]	–	–	–	–	–	–	–	–	–	–	145 µg/mL (≈ 200 µM)	14.5 µg/mL (≈ 20 µM)	0.1 ×10⁻⁶ cm/s	2.6
